Assay results as given in article PMC3975032, “ATPase Activity and ATP-dependent Conformational Change in the Co-chaperone HSP70/HSP90-organizing Protein (HOP)” (The Journal of Biological Chemistry, 2014).

Assays:
[1] = molecular target: T1, HOP-(1-543), full-length human HSP70/HSP90-organizing protein (Homo sapiens, UniProt P31948); assay: protection from TPCK-trypsin digestion, SDS-PAGE; type: binding; conditions: 25 mM HEPES-KOH pH 7.4, 5 mM MgCl2, 100 mM KCl, 37 °C, 30 min
T1 construct: gene STIP1; full-length 1-543, His6-tagged (pCold I), E. coli BL21, Ni-NTA and Superdex 200; monomer
T1 sequence (P31948 whole entry): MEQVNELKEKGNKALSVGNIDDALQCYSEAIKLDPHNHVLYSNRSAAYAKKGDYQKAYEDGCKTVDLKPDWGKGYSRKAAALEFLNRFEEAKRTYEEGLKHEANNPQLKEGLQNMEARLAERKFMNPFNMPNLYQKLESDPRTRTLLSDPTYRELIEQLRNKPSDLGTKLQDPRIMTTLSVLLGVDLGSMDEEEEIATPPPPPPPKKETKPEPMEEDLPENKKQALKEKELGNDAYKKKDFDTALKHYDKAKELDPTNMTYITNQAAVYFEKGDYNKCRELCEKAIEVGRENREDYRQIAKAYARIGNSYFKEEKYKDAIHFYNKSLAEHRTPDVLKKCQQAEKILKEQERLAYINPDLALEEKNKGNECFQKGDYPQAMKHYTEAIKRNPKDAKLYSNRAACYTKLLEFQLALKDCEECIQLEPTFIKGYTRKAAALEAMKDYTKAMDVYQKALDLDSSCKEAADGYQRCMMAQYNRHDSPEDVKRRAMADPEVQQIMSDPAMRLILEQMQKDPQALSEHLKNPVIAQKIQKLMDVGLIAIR

[2] = molecular target: T2, HOP-(1-543), full-length human HSP70/HSP90-organizing protein (Homo sapiens, UniProt P31948, D186A); assay: ATP hydrolysis rate versus ATP concentration; type: biochemical; conditions: 25 mM HEPES-KOH pH 7.4, 5 mM MgCl2, 50 mM KCl, 37 °C
T2 construct: gene STIP1; full-length 1-543, His6-tagged (pCold I), E. coli BL21, Ni-NTA and Superdex 200; monomer
T2 sequence (P31948 whole entry D186A): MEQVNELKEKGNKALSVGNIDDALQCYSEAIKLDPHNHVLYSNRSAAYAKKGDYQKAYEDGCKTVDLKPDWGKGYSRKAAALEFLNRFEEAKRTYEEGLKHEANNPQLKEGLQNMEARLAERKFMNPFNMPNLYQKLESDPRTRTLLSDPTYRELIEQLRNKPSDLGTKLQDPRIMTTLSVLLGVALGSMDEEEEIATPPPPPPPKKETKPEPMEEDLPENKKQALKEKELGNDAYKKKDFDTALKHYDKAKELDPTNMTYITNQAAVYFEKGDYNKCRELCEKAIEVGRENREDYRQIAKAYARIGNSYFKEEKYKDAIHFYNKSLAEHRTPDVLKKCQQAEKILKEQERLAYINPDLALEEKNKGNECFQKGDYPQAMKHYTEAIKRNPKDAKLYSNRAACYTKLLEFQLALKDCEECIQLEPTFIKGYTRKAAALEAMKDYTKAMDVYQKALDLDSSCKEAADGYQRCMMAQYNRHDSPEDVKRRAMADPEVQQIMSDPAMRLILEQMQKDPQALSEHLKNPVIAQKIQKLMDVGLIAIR

[3] = molecular target: T3, HOP-(1-359), TPR1-TPR2A (ATPase domain) (Homo sapiens, UniProt P31948); assay: 1H NMR chemical shift change (protein amide region); type: binding; conditions: 20 mM potassium phosphate pH 6.5, 50 mM KCl, 5 mM MgCl2, 25 °C, 10-fold molar excess ATP
T3 construct: gene STIP1; TPR1-DP1-TPR2A segment, residues 1-359, His6-tagged (pCold I), E. coli BL21
T3 sequence (P31948 1-359): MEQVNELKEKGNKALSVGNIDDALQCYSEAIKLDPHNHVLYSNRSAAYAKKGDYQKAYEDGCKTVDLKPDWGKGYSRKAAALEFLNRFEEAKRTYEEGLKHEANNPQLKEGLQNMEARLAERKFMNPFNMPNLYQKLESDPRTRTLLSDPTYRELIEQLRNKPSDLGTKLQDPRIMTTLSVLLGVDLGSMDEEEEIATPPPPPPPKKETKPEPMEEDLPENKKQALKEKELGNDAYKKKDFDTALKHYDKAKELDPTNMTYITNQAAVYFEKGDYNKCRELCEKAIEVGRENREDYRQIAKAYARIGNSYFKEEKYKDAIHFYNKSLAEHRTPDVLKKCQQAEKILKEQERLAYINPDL

[4] = molecular target: T1, HOP-(1-543), full-length human HSP70/HSP90-organizing protein; assay: 1H NMR titration (ATP H2/H8 shifts), non-linear fit; type: binding

protection efficiency at 5 mM [1] [%] | Kd [4] [µM] | SMILES | ATP hydrolysis rate versus ATP concentration [2] | 1H NMR chemical shift change (protein amide region) [3]
31.0 ± 8.9 |  | Nc1ncnc2c1ncn2[C@@H]1O[C@H](COP(=O)(O)OP(=O)(O)O)[C@@H](O)[C@H]1O [ADP] |  | 
28.6 ± 10.1 |  | Nc1ncnc2c1ncn2[C@@H]1O[C@H](COP(=O)(O)OP(=O)(O)NP(=O)(O)O)[C@@H](O)[C@H]1O [AMP-PNP, adenosine 5′-(β,γ-imino)triphosphate] |  | 
 | 350 | Nc1ncnc2c1ncn2[C@@H]1O[C@H](COP(=O)(O)OP(=O)(O)OP(=O)(O)O)[C@@H](O)[C@H]1O [ATP] | this mutation caused no significant change in ATPase activity | These data indicated that ATP directly binds the ATPase domain of HOP
